# Where two headings read alike, the source gives them in different places.
# What was measured:
# serotonin uptake site = biological target: T1, serotonin uptake site (Rattus norvegicus, UniProt P31652); assay: Affinity for the serotonin uptake site, [3H]-paroxetine binding
# T1 construct: from tissue; host or cells: entire rat brain
# Description: The method of Plenge et al (Eur. J. Pharmacol., 1990, 189, 129-134) was followed with slight modifications. The entire rat brain was used to produce a pellet having a final concentration of 2 mg of tissue/sample. Specific activity of the tracer: 29.7 Ci/mmole; incubation time: 60 min.; incubation temperature: 25° C.
# 5-HT2A Subtype = biological target: T2, 5-HT2A Subtype (Rattus norvegicus, UniProt P14842); assay: Affinity for the 5HT2 receptors, [3H]-ketanserine binding; conditions: for Ki: read-out: Ki ± SE, 5-HT2A Subtype ([3R]-ketanserine)
# T2 construct: from tissue; host or cells: rat prefrontal cortex
# Description: c) Affinity for the 5HT2 Receptors
# The method of Leysen et al (Mol. Pharmacol. 1982, 21, 301-314) was followed with slight modifications. Rat prefrontal cortex was used to produce a pellet having a final concentration of 8 mg of tisssue/sample. Specific activity of the tracer: 80.9 Ci/mmole; incubation time: 20 min; incubation temperature: 37° C.
# 5-HT1A receptors = biological target: T3, 5-HT1A receptors (Rattus norvegicus, UniProt P19327); assay: Affinity for the 5-HT1A receptors, [3H]-8-OH DPAT binding; conditions: for Ki ± SE, 5-HT1A Subtype ([3H]-8OH-DPAT): rat hippocampus, 10 min, 37° C., IN (10^−6M) where no Ki is given
# T3 construct: from tissue; host or cells: rat hippocampus
# T3 sequence (P19327 1-422): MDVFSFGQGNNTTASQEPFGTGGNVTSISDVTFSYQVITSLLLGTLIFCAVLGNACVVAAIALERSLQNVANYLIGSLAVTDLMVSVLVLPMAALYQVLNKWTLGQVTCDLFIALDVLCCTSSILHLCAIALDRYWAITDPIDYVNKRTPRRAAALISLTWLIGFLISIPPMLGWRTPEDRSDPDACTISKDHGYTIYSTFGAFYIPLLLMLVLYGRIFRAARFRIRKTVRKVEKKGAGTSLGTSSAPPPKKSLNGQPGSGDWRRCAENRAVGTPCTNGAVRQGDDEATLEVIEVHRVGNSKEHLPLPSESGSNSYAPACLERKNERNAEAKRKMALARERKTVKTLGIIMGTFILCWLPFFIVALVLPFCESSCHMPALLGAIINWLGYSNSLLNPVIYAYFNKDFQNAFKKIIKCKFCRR
# Description: d) Affinity for the 5-HT1A Receptors
# The method of Hall et al (J. Neurochem. 1985, 44, 1685-1696) was followed with slight modifications. Rat hippocampus was used to produce a pellet having a final concentration of 4 mg of tissue/sample. Specific activity of the tracer: 137 Ci/mmole; incubation time 10 min; incubation temperature: 37° C.
# 5-HT3 receptors = biological target: T4, 5-HT3 receptors (Rattus norvegicus, UniProt P35563); assay: Affinity for the 5-HT3 receptors, [3H]-BRL43694 (Granisetron) binding
# T4 construct: from tissue; host or cells: rat cortex and hippocampus
# T4 sequence (P35563 24-483): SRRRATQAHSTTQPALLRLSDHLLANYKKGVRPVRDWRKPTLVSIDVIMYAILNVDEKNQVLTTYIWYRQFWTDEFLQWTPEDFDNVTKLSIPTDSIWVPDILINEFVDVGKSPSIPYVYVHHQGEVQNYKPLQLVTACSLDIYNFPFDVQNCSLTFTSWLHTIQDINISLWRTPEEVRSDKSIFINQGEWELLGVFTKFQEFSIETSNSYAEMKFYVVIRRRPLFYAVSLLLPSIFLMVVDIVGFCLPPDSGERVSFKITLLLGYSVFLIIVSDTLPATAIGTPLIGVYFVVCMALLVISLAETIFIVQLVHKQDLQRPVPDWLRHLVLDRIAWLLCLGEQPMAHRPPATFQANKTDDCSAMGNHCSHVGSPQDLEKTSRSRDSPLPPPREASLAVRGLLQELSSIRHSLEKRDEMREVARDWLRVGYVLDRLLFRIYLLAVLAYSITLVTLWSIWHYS
# Description: a) Affinity for the 5-HT3 Receptors
# The method of Nelson et al. (Biochem. Pharmacol. 1989, 38, 1693-95) was followed with slight modifications. Rat cortex and hippocampus were used to produce a pellet having a final concentration of 20 mg of tissue/sample. Specific activity of the tracer: 81 Ci/mmole; incubation time: 30 min; incubation temperature: 25° C.
# [1] = entire rat brain, 60 min, 25° C., read-out: Ki ± SE, 5-HT Uptake ([3H]-paroxetin)
# [2] = rat prefrontal cortex, 20 min, 37° C., IN (10^−6M) where no Ki is given
# T1 sequence (P31652 whole entry): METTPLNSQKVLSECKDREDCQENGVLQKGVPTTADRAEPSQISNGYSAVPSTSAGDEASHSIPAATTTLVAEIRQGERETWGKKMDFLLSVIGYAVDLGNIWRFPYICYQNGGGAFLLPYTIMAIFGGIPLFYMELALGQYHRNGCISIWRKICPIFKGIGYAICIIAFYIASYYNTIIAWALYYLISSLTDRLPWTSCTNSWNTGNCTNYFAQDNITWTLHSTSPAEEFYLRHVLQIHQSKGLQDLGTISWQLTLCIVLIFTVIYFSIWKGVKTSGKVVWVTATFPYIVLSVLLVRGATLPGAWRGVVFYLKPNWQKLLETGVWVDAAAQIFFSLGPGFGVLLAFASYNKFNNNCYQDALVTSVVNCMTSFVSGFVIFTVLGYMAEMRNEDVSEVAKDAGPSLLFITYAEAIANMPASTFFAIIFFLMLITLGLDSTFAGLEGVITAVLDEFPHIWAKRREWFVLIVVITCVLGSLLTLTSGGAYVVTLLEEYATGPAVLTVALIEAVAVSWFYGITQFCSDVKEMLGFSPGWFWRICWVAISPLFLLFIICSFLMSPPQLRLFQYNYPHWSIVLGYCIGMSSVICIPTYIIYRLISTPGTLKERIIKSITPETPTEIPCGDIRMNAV
# T2 sequence (P14842 whole entry): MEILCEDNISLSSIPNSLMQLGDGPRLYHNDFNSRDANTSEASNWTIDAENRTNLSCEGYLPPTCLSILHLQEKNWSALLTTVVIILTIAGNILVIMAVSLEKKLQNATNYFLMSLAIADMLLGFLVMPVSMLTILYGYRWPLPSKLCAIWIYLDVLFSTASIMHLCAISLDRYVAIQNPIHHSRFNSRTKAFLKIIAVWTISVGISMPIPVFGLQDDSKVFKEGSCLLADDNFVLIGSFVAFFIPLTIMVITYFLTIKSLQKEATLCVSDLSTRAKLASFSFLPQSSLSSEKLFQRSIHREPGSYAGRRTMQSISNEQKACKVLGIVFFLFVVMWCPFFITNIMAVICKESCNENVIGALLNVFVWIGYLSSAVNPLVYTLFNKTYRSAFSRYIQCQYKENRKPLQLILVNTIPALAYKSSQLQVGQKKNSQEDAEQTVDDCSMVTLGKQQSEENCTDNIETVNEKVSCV
Structure (SMILES),"Ki ± SE, 5-HT1A Subtype ([3H]-8OH-DPAT) (5-HT1A receptors)",melting point [°C],Ki (5-HT3 receptors) [µM],Ki (serotonin uptake site; [1]) [µM],"Ki ± SE, 5-HT2A Subtype ([3R]-ketanserine) (5-HT2A Subtype; [2])",other results
"O=C1c2c(ccc3ccccc23)CN1C1CN2CCC1CC2 (racemic) [Compound 6, (R,S)-2-[1-azadicyclo[2.2.2]oct-3-yl]-2,3-dihydro-1H-benz[e]isoindol-1-one]",IN (10^−6M),153 to 154,0.0007 ± 8e-05,–,–,Ki (serotonin uptake site): 0.0958 ± 0.0096 µM; Ki (5-HT2A Subtype): 26.5 ± 8.7 µM
"O=C1c2c(cnc3ccccc23)CN1C1CN2CCC1CC2 (racemic) [Compound 9, (R,S)-2-[1-azadicyclo[2.2.2]oct-3-yl]-2,3-dihydro-1H-pyrrolo[3,4-c]quinolin-1-one]",IN (10^−6M),–,0.0016 ± 0.0006,0.124 ± 0.022,IN (10^−6M),–
"O=[N+]([O-])c1ccc2nc(N3CCNCC3)ccc2c1 [6-NO2-quipazine, reference compound]",–,–,–,0.00012 ± 1e-05,–,–
CN1[C@@H]2CC[C@H]1C[C@@H](N1Cc3ccc4ccccc4c3C1=O)C2 [Compound 1],–,–,0.001 ± 0.0002,0.632 ± 0.051,–,"Ki (5-HT2A Subtype): 21.1 ± 2.3 µM; Ki (5-HT1A receptors; read-out: Ki ± SE, 5-HT1A Subtype ([3H]-8OH-DPAT)): 30.6 ± 6.46 µM"
"CN1[C@@H]2CC[C@H]1C[C@@H](N1Cc3cnc4ccccc4c3C1=O)C2 [Compound 2, endo-2-[8-methyl-8-azadicyclo[3.2.1]oct-3-yl]-2,3-dihydro-1H-pyrrolo[3,4-c]quinolin-1-one]",IN (10^−6M),153 to 154,0.0013 ± 0.0002,0.503 ± 0.086,IN (10^−6M),–
"CN1[C@@H]2CC[C@H]1C[C@@H](N1Cc3c(Cl)nc4ccccc4c3C1=O)C2 [Compound 3, endo-2-[8-methyl-8-azadicyclo[3.2.1]oct-3-yl]-2,3-dihydro-4-chloro-1H-pyrrolo[3,4-c]quinolin-1-one]",IN (10^−6M),169 to 171,0.0026 ± 0.0004,0.175 ± 0.03,IN (10^−6M),–
"CCCOc1nc2ccccc2c2c1CN(C1CC3CCC(C1)N3C)C2=O (stereo not drawn) [Compound 4, endo-2-[8-methyl-8-azadicyclo[3.2.1]oct-3-yl]-2,3-dihydro-4-propoxy-1H-pyrrolo[3,4-c]quinolin-1-one]",IN (10^−6M),170 to 171,0.0007 ± 0.0002,0.108 ± 0.015,IN (10^−6M),–
"CN1[C@@H]2CC[C@H]1C[C@@H](N1Cc3c(O)nc4ccccc4c3C1=O)C2 [Compound 5, endo-2-[8-methyl-8-azadicyclo[3.2.1]oct-3-yl]-2,3-dihydro-4-hydroxy-1H-pyrrolo[3,4-c]quinolin-1-one]",IN (10^−6M),245 to 246,0.0009 ± 6e-05,0.485 ± 0.037,IN (10^−6M),–
"O=C1c2c(ccc3ccccc23)CN1[C@@H]1CN2CCC1CC2 [Compound 7, (S)-2-[1-azadicyclo[2.2.2]oct-3-yl]-2,3-dihydro-1H-benz[e]isoindol-1-one]",–,152 to 154,0.0003 ± 9e-05,–,–,affinity for the 5-HT3 receptor (in words) (5-HT3 receptors): sub-nanomolar
"O=C1c2c(ccc3ccccc23)CN1[C@H]1CN2CCC1CC2 [Compound 8, (R)-2-[1-azadicyclo[2.2.2]oct-3-yl]-2,3-dihydro-1H-benz[e]isoindol-1-one]",–,155 to 157,0.0018 ± 0.0005,–,–,–
"CN1[C@@H]2CC[C@H]1C[C@H](N1Cc3ccc4ccccc4c3C1=O)C2 [Compound 10, reference compound]",–,–,0.0855 ± 0.016,–,–,less active than Compound 1 at the 5HT3 receptor (5-HT3 receptors; relative to Compound 1): ~2 orders of logarithmic magnitude
"CN1[C@@H]2CC[C@H]1C[C@@H](N1Cc3nc4ccccc4cc3C1=O)C2 [Compound 11, endo-2-[8-methyl-8-azadicyclo[3.2.1]oct-3-yl]-2,3-dihydro-1H-pyrrolo[3,4-b]quinolin-1-one, reference compound]",–,–,0.087 ± 0.037,–,–,less active than Compound 2 at the 5HT3 receptor (5-HT3 receptors; relative to Compound 2): approximately 60 times
"c1ccc2nc(N3CCNCC3)ccc2c1 [quipazine, reference compound]",–,–,–,0.0313 ± 0.0029,–,Ki (5-HT2A Subtype; [2]): 1.81 ± 0.476 µM
